Results as given in US11111237B2, “Bicyclic compound and use thereof” (SK BIOPHARMACEUTICALS CO., LTD., priority 2019, dated 2021).

biological target: PRMT5-MEP50 enzyme complex (Homo sapiens (Human), UniProt O14744); assay: PRMT5 enzyme activity in vitro assay (methylation of histone H4R3, ELISA absorbance at 450 nm); type: biochemical; details: SAM, histone H4 peptide, room temperature 2 hours, 8 points from 10 μM to 0.128 nM
In short: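 Human PRMT5-MEP50 was prepared at 5 μg/mL with SAM at 2 μM and reacted 2 h at room temperature on plate-coated histone H4 (1-20) peptide. An 8-point 1:5 compound series ran from 10 μM to 0.128 nM. H4R3 methylation was detected by antibody/HRP ELISA at 450 nm to give IC50.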

Sequence of PRMT5-MEP50 enzyme complex (O14744 2-637): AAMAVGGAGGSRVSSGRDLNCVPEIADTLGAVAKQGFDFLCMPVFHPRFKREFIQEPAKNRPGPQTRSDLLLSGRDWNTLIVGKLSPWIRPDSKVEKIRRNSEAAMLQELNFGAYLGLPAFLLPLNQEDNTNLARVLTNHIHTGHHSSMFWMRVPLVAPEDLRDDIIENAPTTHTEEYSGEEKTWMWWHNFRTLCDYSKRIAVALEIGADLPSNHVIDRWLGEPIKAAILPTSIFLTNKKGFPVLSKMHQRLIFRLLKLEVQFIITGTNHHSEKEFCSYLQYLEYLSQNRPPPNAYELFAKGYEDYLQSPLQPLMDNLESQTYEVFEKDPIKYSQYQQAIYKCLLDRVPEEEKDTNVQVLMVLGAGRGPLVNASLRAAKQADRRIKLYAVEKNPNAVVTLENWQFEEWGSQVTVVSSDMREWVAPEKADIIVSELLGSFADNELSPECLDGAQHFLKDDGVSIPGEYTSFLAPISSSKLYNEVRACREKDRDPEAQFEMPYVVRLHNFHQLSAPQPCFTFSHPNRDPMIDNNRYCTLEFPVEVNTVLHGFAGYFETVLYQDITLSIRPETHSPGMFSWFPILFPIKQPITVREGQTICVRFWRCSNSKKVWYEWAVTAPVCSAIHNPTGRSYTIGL
Sequence of PRMT5-MEP50 enzyme complex (Q9BQA1 2-342 partner): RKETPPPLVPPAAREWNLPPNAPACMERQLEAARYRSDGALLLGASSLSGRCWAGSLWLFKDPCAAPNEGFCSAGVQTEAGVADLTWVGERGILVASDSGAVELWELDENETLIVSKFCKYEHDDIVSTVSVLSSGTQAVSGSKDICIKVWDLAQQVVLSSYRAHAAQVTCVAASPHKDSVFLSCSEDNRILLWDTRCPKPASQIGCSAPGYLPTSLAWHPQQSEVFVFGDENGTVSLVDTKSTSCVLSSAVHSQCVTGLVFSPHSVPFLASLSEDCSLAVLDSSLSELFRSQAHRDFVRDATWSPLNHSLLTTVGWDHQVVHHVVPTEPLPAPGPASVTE

Compound | IC50
CC(=O)N1CC(Oc2ccc3c(c2)O[C@H](C)CN(C[C@H](O)CN2CCc4ccccc4C2)C3=O)C1 [Example 142, (2R)-8-(1-acetylazetidin-3-yl)oxy-4-[(2R)-3-(3,4-dihydro-1H-isoquinolin-2-yl)-2-hydroxypropyl]-2-methyl-2,3-dihydro-1,4-benzoxazepin-5-one] | 1 to 100 nM
C[C@@H]1CN(C[C@H](O)CN2CCc3ccccc3C2)C(=O)c2ccc(OC3CCN(C)CC3)cc2O1 [Example 143, (2R)-4-[(2R)-3-(3,4-dihydro-1H-isoquinolin-2-yl)-2-hydroxypropyl]-2-methyl-8-[(1-methyl-4-piperidyl)oxy]-2,3-dihydro-1,4-benzoxazepin-5-one] | 100 to 1000 nM
CC1CN(C[C@H](O)CN2CCc3ccccc3C2)C(=O)c2ccc(OC3CCN(C)CC3)nc2O1 (stereo partly drawn) [Example 144, 4-[(2R)-3-(3,4-dihydro-1H-isoquinolin-2-yl)-2-hydroxypropyl]-2-methyl-8-[(1-methyl-4-piperidyl)oxy]-2,3-dihydropyrido[3,2-f][1,4]oxazepin-5-one] | 100 to 1000 nM
CN1CCC(Oc2ccc3c(n2)OC(C)(C)CN(C[C@H](O)CN2CCc4ccccc4C2)C3=O)CC1 [Example 145, 4-[(2R)-3-(3,4-dihydro-1H-isoquinolin-2-yl)-2-hydroxypropyl]-2,2-dimethyl-8-[(1-methyl-4-piperidyl)oxy]-3H-pyrido[3,2-f][1,4]oxazepin-5-one] | 100 to 1000 nM
C[C@H]1CN(C[C@H](O)CN2CCc3ccccc3C2)C(=O)c2ccc(OC3CCN(C)CC3)cc2O1 [Example 146, (2S)-4-[(2R)-3-(3,4-dihydro-1H-isoquinolin-2-yl)-2-hydroxypropyl]-2-methyl-8-[(1-methyl-4-piperidyl)oxy]-2,3-dihydro-1,4-benzoxazepin-5-one] | 100 to 1000 nM
O=C1c2ccccc2OCCN1CC(O)CN1CCc2ccccc2C1 (stereo not drawn) [Example 147, 4-[3-(3,4-dihydro-1H-isoquinolin-2-yl)-2-hydroxy-propyl]-2,3-dihydro-1,4-benzoxazepin-5-one] | 100 to 1000 nM
O=C1c2ccccc2CCCN1CC(O)CN1CCc2ccccc2C1 (stereo not drawn) [Example 148, 2-[3-(3,4-dihydro-1H-isoquinolin-2-yl)-2-hydroxy-propyl]-4,5-dihydro-3H-2-benzazepin-1-one] | 1000 to 10000 nM
O=C1c2ccccc2OCCN1C[C@H](O)CN1CCc2ccccc2C1 [Example 149, 4-[(2R)-3-(3,4-dihydro-1H-isoquinolin-2-yl)-2-hydroxy-propyl]-2,3-dihydro-1,4-benzoxazepin-5-one] | 100 to 1000 nM
O=C1c2ccc(F)cc2OCCN1C[C@H](O)CN1CCc2ccccc2C1 [Example 150, 4-[(2R)-3-(3,4-dihydro-1H-isoquinolin-2-yl)-2-hydroxy-propyl]-8-fluoro-2,3-dihydro-1,4-benzoxazepin-5-one] | 100 to 1000 nM
O=C1c2ccc(Br)cc2OCCN1C[C@H](O)CN1CCc2ccccc2C1 [Example 151, 8-bromo-4-[(2R)-3-(3,4-dihydro-1H-isoquinolin-2-yl)-2-hydroxy-propyl]-2,3-dihydro-1,4-benzoxazepin-5-one] | 1 to 100 nM
O=C1c2ccncc2OCCN1C[C@H](O)CN1CCc2ccccc2C1 [Example 152, 4-[(2R)-3-(3,4-dihydro-1H-isoquinolin-2-yl)-2-hydroxy-propyl]-2,3-dihydropyrido[4,3-f][1,4]oxazepin-5-one] | 100 to 1000 nM
O=C1c2ccc(Cl)nc2OCCN1C[C@H](O)CN1CCc2ccccc2C1 [Example 153, 8-chloro-4-[(2R)-3-(3,4-dihydro-1H-isoquinolin-2-yl)-2-hydroxy-propyl]-2,3-dihydropyrido[3,2-f][1,4]oxazepin-5-one] | 100 to 1000 nM
O=C1c2ccc(Cl)cc2CCCN1C[C@H](O)CN1CCc2ccccc2C1 [Example 154, 7-chloro-2-[(2R)-3-(3,4-dihydro-1H-isoquinolin-2-yl)-2-hydroxy-propyl]-4,5-dihydro-3H-2-benzazepin-1-one] | 1 to 100 nM
CCN1CCN(C[C@H](O)CN2CCc3ccccc3C2)C(=O)c2ccc(Br)cc21 [Example 157, 8-bromo-4-[(2R)-3-(3,4-dihydro-1H-isoquinolin-2-yl)-2-hydroxy-propyl]-1-ethyl-2,3-dihydro-1,4-benzodiazepin-5-one] | 1 to 100 nM
N#CCN1CCC(Oc2ccc3c(c2)OCCN(C[C@H](O)CN2CCc4ccccc4C2)C3=O)CC1 [Example 159] | 100 to 1000 nM
O=C1c2ccc(OC3CCN(C(=O)C(F)F)CC3)cc2OCCN1C[C@H](O)CN1CCc2ccccc2C1 [Example 160, 8-[[1-(2,2-difluoroacetyl)-4-piperidyl]oxy]-4-[(2R)-3-(3,4-dihydro-1H-isoquinolin-2-yl)-2-hydroxy-propyl]-2,3-dihydro-1,4-benzoxazepin-5-one] | 1 to 100 nM
O=C1c2ccc(OC3CN(C(=O)C(F)F)C3)cc2OCCN1C[C@H](O)CN1CCc2ccccc2C1 [Example 161] | 1 to 100 nM
O=C1c2ccc(OC3CCN(CCO)CC3)cc2OCCN1C[C@H](O)CN1CCc2ccccc2C1 [Example 162, 4-[(2R)-3-(3,4-dihydro-1H-isoquinolin-2-yl)-2-hydroxy-propyl]-8-[[1-(2-hydroxyethyl)-4-piperidyl]oxy]-2,3-dihydro-1,4-benzoxazepin-5-one] | 100 to 1000 nM
O=C1c2ccc(OC3CCN(CCF)CC3)cc2OCCN1C[C@H](O)CN1CCc2ccccc2C1 [Example 163, 4-[(2R)-3-(3,4-dihydro-1H-isoquinolin-2-yl)-2-hydroxy-propyl]-8-[[1-(2-fluoroethyl)-4-piperidyl]oxy]-2,3-dihydro-1,4-benzoxazepin-5-one] | 100 to 1000 nM
O=C1c2ccc(OC3CCN(CCF)CC3)nc2OCCN1C[C@H](O)CN1CCc2ccccc2C1 [Example 164, 4-[(2R)-3-(3,4-dihydro-1H-isoquinolin-2-yl)-2-hydroxy-propyl]-8-[[1-(2-fluoroethyl)-4-piperidyl]oxy]-2,3-di hydropyrido[3,2-f][1,4]oxazepin-5-one] | 100 to 1000 nM
CC1(CN2CCC(Oc3ccc4c(c3)OCCN(C[C@H](O)CN3CCc5ccccc5C3)C4=O)CC2)COC1 [Example 165, 4-[(2R)-3-(3,4-dihydro-1H-isoquinolin-2-yl)-2-hydroxypropyl]-8-[[1-[(3-methyloxetan-3-yl)methyl]-4-piperidyl]oxy]-2,3-dihydro-1,4-benzoxazepin-5-one] | 1 to 100 nM
N#CN1CCC(Oc2ccc3c(c2)OCCN(C[C@H](O)CN2CCc4ccccc4C2)C3=O)CC1 [Example 166, 4-[[4-[(2R)-3-(3,4-dihydro-1H-isoquinolin-2-yl)-2-hydroxypropyl]-5-oxo-2,3-dihydro-1,4-benzoazepin-8-yl]oxy]piperidine-1-carbonitrile] | 100 to 1000 nM
CC(=O)N1CCN(Cc2ccc3c(c2)OC(C)(C)CN(C[C@H](O)CN2CCc4ccccc4C2)C3=O)CC1 [Example 167, 8-[(4-acetylpiperazin-1-yl)methyl]-4-[(2R)-3-(3,4-dihydro-1H-isoquinolin-2-yl)-2-hydroxy-propyl]-2,2-dimethyl-3H-1,4-benzoxazepin-5-one] | 100 to 1000 nM
CC1(C)CN(C[C@H](O)CN2CCc3ccccc3C2)C(=O)c2ccc(OC3CN(C=O)C3)cc2O1 [Example 168, 3-[[4-[(2R)-3-(3,4-dihydro-1H-isoquinolin-2-yl)-2-hydroxy-propyl]-2,2-dimethyl-5-oxo-3H-1,4-benzoxazepin-8-yl]oxy]azetidin-1-carbaldehyde] | 1 to 100 nM
